Data set [1] deals with Enterococcus faecalis. The data set is described as follows: Antibacterial activity against Enterococcus faecalis ATCC 29212 incubated for 18 hrs by microdilution method. In kind it is functional, organism-based. (In general: Dilution methods test growth across graded concentrations, often in twofold steps.)
Data set [2] concerns A549. The data set is described as follows: Cytotoxicity against human A549 cells after 24 hrs by tetrazolium dye based assay. In kind it is functional, cell-based.
Data set [3] concerns Klebsiella pneumoniae. The data set is described as follows: Antibacterial activity against Klebsiella pneumoniae ATCC 700603 incubated for 18 hrs by microdilution method. The data set is classed as functional, organism-based.
The species entered for data set [4] is Homo sapiens. As to the kind of experiment: Cytotoxicity against human ACP01 cells after 24 hrs by tetrazolium dye based assay. The data set is classed as functional, cell-based.
Data set [5] has as its system Staphylococcus aureus. As to the kind of experiment: Antibacterial activity against Staphylococcus aureus ATCC 29213 incubated for 18 hrs by microdilution method. The data set is classed as functional, organism-based.
Data set [6] relates to MCF7. The data set is described as follows: Cytotoxicity against human MCF7 cells after 24 hrs by tetrazolium dye based assay. The data set is classed as functional, cell-based.
Data set [7] has as its system MCF-10A. As to the kind of experiment: Cytotoxicity against human MCF10A cells after 24 hrs by tetrazolium dye based assay. In kind it is cell-based.
Data set [8] relates to HeLa. As to the kind of experiment: Cytotoxicity against human HeLa cells after 24 hrs by tetrazolium dye based assay. In kind it is functional, cell-based.
Data set [9] relates to Pseudomonas aeruginosa. The data set is described as follows: Antibacterial activity against Pseudomonas aeruginosa ATCC 27853 incubated for 18 hrs by microdilution method. In kind it is functional, organism-based.

The source made the active and inactive calls. The calls are words filed in the database; no cut-off is given here.

For the compound `C=CC(C)(C)[C@H]1Nc2ccccc2C(=O)[C@@H]1CNC(=O)CC[C@H](N)C(=O)O`, the outcome in data set [1], in [2], in [3], in data set [4], in data set [5] and in data set [6] was inactive. Moreover, the outcome in data set [8] and in data set [9] was inactive. The Activity result in [7] is given as “Non-Toxic”.
On to `C=CC(C)(C)c1[nH]c2ccccc2c1CCNC(=O)CC[C@H](O)C(=O)O`, for which the result in data set [1], in data set [2], in data set [3], in data set [4], in data set [5] and in [6] was inactive. The result in data set [8] and in data set [9] was inactive. For the same compound, the Activity result in data set [7] is “Non-Toxic”.
`C=CC(C)(C)C(=O)Nc1ccccc1C(=O)CCNC(=O)CC[C@H](N)C(=O)O`: the result in [1], in [2], in [3], in [4], in data set [5] and in data set [6] was inactive. The result in data set [8] and in data set [9] was inactive. Moreover, the Activity result in data set [7] is recorded as “Non-Toxic”.
Turning to `C=CC(C)(C)c1[nH]c2ccccc2c(=O)c1CNC(=O)CC[C@H](N)C(=O)O`, the result in data set [1], in data set [2], in data set [3], in [4], in [5] and in data set [6] was inactive. The outcome in data set [8] and in data set [9] was inactive. Besides, the Activity entry in data set [7] is given as “Non-Toxic”.
On to `C=CC(C)(C)[C@@]1(CCNC(=O)CC[C@H](N)C(=O)O)C(=O)Nc2ccccc21`, for which the result in data set [1], in data set [2], in [3], in data set [4], in data set [5] and in [6] was inactive. Besides, the result in data set [8] and in data set [9] was inactive. The Activity entry in data set [7] is given as “Non-Toxic”.
As to `C=CC(C)(C)c1[nH]c2ccccc2c1CCNC(=O)CC[C@H](N)C(=O)O`, the result in data set [1], in data set [2], in data set [3], in data set [4], in [5] and in [6] was inactive. Also, the result in data set [8] and in data set [9] was inactive. Besides, the Activity entry in data set [7] is “Non-Toxic”.

The values above are taken from ChEMBL document CHEMBL4342452, “Water-Soluble Glutamic Acid Derivatives Produced in Culture by Penicillium solitum IS1-A from King George Island, Maritime Antarctica” (J Nat Prod, 2020).
